Experimental findings from US20080194637A1, “Small organic molecule regulators of cell proliferation” (Curis, Inc., priority 2006, published 2008) are described below.

Experiment [1] relates to sonic hedgehog pathway, S12 mouse embryonic mesenchymal cells. Briefly: Hedgehog pathway Gli-luciferase reporter assay in S12 cells. In kind it is cell-based. An excerpt:
(§1) Mouse (TM3: mouse Leydig cells; S12: mouse embryonic mesenchymal cells) and human (Daoy: human medulloblastoma cell; HepM: human embryonic palatal mesenchymal cell) cell lines are used to screen small molecules for their ability to modulate the activity of the sonic hedgehog pathway (Table 1, Table 2, and Table 3). Stable hedgehog pathway reporter cell lines are established by specific antibiotic selection following transfection of a reporter plasmid containing a luciferase gene located directly downstream from the gli promoter. Consequently, any observable changes in cellular luciferase activity may be attributed to changes in sonic hedgehog pathway activity in mouse and human cells, respectively, since gli is the major by-product of this pathway. To calculate activity, we generate an eleven point dose curve for each compound using 1:3 dilutions in 96 well assay plates. Each plate tested also contains low and high control to establish maximal pathway activation so to establish/compare a percentage activation of each tested compound (AMAX) on respective plates. Also we calculate EC50 values, or a concentration where the pathway will be exactly 50% activated, for each tested compound to determine potency. In these cell lines, compounds that register >20% AMAX values are considered active.
(§2) Stable hedgehog pathway reporter cell lines are established following specific antibiotic selection following transfection of a reporter plasmid In short, typically cells are plated in MicroTiter-plates at 10,000-20,000 cells per well, in growth media (containing 10%-20% FBS). After 48-72 hrs (HGL and DGL respectively) the media in the assay plates is switched to low-serum containing media (0.5% FBS). At that time compounds are added (at 1-5 μM) to the assay plates, in the presence or absence of hedgehog protein (octyl-modified version; 1-5 ng/ml). After another 24 hrs of incubation, the media from the assay plates is discarded and replaced with luciferase assay-mix. Subsequently, plates are incubated at RT for ˜15-30 mins and then read in a luminometer. [note: addition of the Hedgehog protein, although not critical, will sensitize the assay allowing the identification of weak actives].

Experiment [2] relates to sonic hedgehog pathway, Daoy human medulloblastoma cells. Put plainly: Human hedgehog reporter assay Daoy-GliLuc (DGL). The experiment is classed as cell-based.
Description: as §1, §2
Background: Reporter assays use an easily measured gene product as a stand-in for the process of interest.

Experiment [3] deals with C57BL/6 male mice. Briefly: C57BL/6 hair growth after single topical dose. In kind it is in vivo, mouse. The conditions noted are these: shaved lower back, dosed topically once, visually graded for melanogenesis and hair regrowth. The protocol:
(§3) A mouse model of male pattern baldness is used to investigate the effectiveness of the present compounds for growing hair. Agonists for the sonic hedgehog pathway that act by binding and activating Smoothened were tested in a formulation of 50:30:20 PG:EtOH:water or 5:95 DMSO:acetone vehicle. C57BL/6 male mice (48-52 days old on arrival) from Charles River Labs were used on the study. The mice were housed and cared for according to established procedures. Food and water were ad libitum. On Day 0, the mice were shaved on their lower back, an area of ˜1.5 inches×˜2 inches with Wahl clippers using a surgical blade. On day −3, the mice were anesthetized with isoflurane, their back was rinsed with a pad of 70% ethanol, a placebo pellet or a DHT pellet (2.5 mg 21 day pellet) were implanted subcutaneously between the shoulder blades with a 10 gauge trochar. DHT pellet transplantation results in maintenance of existing hair follicles in the resting (telogen) phase. The hole was stapled with a sterile autoclip and the mice were returned to their cage after awaking. The mice were dosed topically once and visually graded daily, except weekends, for melanogenesis and hair regrowth of fur in the dosed area (Table 4).

In experiment [4] the test system is C57BL/6 male mice with DHT pellet. Briefly: DHT-induced alopecia mouse model of male pattern baldness. In kind it is in vivo. The conditions noted are these: C57BL/6 male mice with subcutaneous DHT pellet (2.5 mg 21 day), dosed topically once, visually graded for hair regrowth. As to the method: as §3
In the absence of treatment with the present compounds, the follicles remain in telogen rather than following the normal time course of the mouse hair cycle.

Experiment [5] relates to sonic hedgehog pathway, TM3 mouse Leydig cells. Put plainly: Hedgehog pathway Gli-luciferase reporter assay in TM3 cells. Particulars: Table 1. The experiment is classed as cell-based.
Description: as §1, §2

Experiment [6] concerns sonic hedgehog pathway, HepM human embryonic palatal mesenchymal cells. Briefly: Human hedgehog reporter assay HEPM-GliLuc (HGL). Particulars: HepM human embryonic palatal mesenchymal cells, gli-luciferase reporter, Table 1. The experiment is classed as cell-based.
Description: as §1, §2

[7] abbreviates: S12 mouse cells, Table 2, read-out: Mouse S12 Avg. EC50.
Where [8] appears, read: Daoy human cells, Gli-Luc, Table 2, read-out: Human Daoy (Gli-Luc) Avg. EC50.
[9] abbreviates: S12 mouse embryonic mesenchymal cells, Table 1, read-out: S12 Avg. EC50.
Where [10] appears, read: Daoy human medulloblastoma cells, gli-luciferase reporter, Table 1, read-out: Daoy Avg. EC50.

Counter-ions that a name gives are not always drawn. Like-named read-outs stand apart in the source and are kept apart here.

By EC50 is commonly meant the concentration giving half of the maximal effect. As for `CN[C@H]1CC[C@@H](N(Cc2cc(-c3cc[n+]([O-])cc3)ccc2OC)C(=O)c2sc3c(F)ccc(F)c3c2Cl)CC1` [Compound 374, 4-(3-((3-chloro-4,7-difluoro-N-((1s,4s)-4-(methylamino)cyclohexyl)benzo[b]thiophene-2-carboxamido)methyl)-4-methoxyphenyl)pyridine 1-oxide], the EC50 in experiment [1] (setting [7]) and in experiment [2] (setting [8]) was below 0.05 µM in each case.
For `CN[C@H]1CC[C@@H](N(Cc2cc(-c3ccc(SC)cc3)ccc2OC)C(=O)c2sc3c(F)ccc(F)c3c2Cl)CC1` [Compound 373, 3-Chloro-4,7-difluoro-benzo[b]thiophene-2-carboxylic acid (4-methoxy-4′-methylsulfanyl-biphenyl-3-ylmethyl)-(4-methylamino-cyclohexyl)-amide hydrochloride], the EC50 in experiment [1] (setting [7]) and in experiment [2] (setting [8]) was below 0.05 µM throughout.
As to `CN[C@H]1CC[C@H](N(Cc2cc(-c3ccnc(C)c3)ccc2OC)C(=O)c2sc3ccccc3c2Cl)CC1`, the “C57BL/6 Hair Growth” value in experiment [3] is listed as “yes”. The “Androgenetic Alopecia” value in experiment [4] was “yes”.
Regarding `CN[C@H]1CC[C@H](N(Cc2cc(-c3ccc(S(C)(=O)=O)cc3)ccc2OC)C(=O)c2sc3ccccc3c2Cl)CC1`, the “C57BL/6 Hair Growth” value in experiment [3] is recorded as “yes”. For the same compound, the “Androgenetic Alopecia” value in experiment [4] is “yes”.
Turning to `CN[C@H]1CC[C@@H](N(Cc2cc(-c3ccc(C(C)=O)cc3)ccc2OC)C(=O)c2sc3ccccc3c2Cl)CC1` [Compound 303, 3-Chloro-benzo[b]thiophene-2-carboxylic acid (4′-acetyl-4-methoxy-biphenyl-3-ylmethyl)-(4-methylamino-cyclohexyl)-amide hydrochloride], the EC50 in experiment [5], in experiment [1] (setting [9]), in experiment [6] and in experiment [2] (setting [10]) was below 0.05 µM in each case.
As to `CCOc1ccc(-c2ccc(C)nc2)cc1CN(C(=O)c1sc2ccccc2c1Cl)[C@H]1CC[C@H](NC)CC1`, the “C57BL/6 Hair Growth” value in experiment [3] was “yes”.
For the compound `CNC1CCC(N(Cc2cc(-c3ccncc3)ccc2OC)C(=O)c2sc3ccccc3c2Cl)CC1` (stereo not drawn), the “C57BL/6 Hair Growth” value in experiment [3] is “yes”. The “Androgenetic Alopecia” value in experiment [4] is “yes”.
Consider `CN[C@H]1CC[C@H](N(Cc2cc(-c3ccnc(C(=O)O)c3)ccc2OC)C(=O)c2sc3c(F)ccc(F)c3c2Cl)CC1`, for which, in experiment [3], the “C57BL/6 Hair Growth” value is reported as “no”.
Consider `CN[C@H]1CC[C@H](N(Cc2cc(-c3ccnc(C(=O)OC)c3)ccc2OC)C(=O)c2sc3c(F)ccc(F)c3c2Cl)CC1`, for which the “C57BL/6 Hair Growth” value in experiment [3] is listed as “yes”. Also, the “Androgenetic Alopecia” value in experiment [4] was “yes”.
Turning to `CN[C@H]1CC[C@@H](N(Cc2cc(-c3ccc([S+](C)[O-])cc3)ccc2OC)C(=O)c2sc3c(F)ccc(F)c3c2Cl)CC1` (stereo partly drawn) [Compound 377, 3-Chloro-4,7-difluoro-benzo[b]thiophene-2-carboxylic acid (4′-methanesulfinyl-4-methoxy-biphenyl-3-ylmethyl)-(4-methylamino-cyclohexyl)-amide trifluoroacetate], the EC50 in experiment [1] (setting [7]) and in experiment [2] (setting [8]) was below 0.05 µM each time.
As to `CN[C@H]1CC[C@H](N(Cc2cc(-c3ccc(NS(C)(=O)=O)nc3)ccc2OC)C(=O)c2sc3c(F)ccc(F)c3c2Cl)CC1`, the “C57BL/6 Hair Growth” value in experiment [3] is on record as “yes”.
As to `CN[C@H]1CC[C@H](N(Cc2cc(-c3ccc(C(N)=O)cc3)ccc2OC)C(=O)c2sc3c(F)ccc(F)c3c2Cl)CC1`, in experiment [3], the “C57BL/6 Hair Growth” value is given as “yes”. For the same compound, the “Androgenetic Alopecia” value in experiment [4] is “yes”.
As to `CN[C@H]1CC[C@@H](N(Cc2cc(-c3cccc([S+](C)[O-])c3)ccc2OC)C(=O)c2sc3c(F)ccc(F)c3c2Cl)CC1` (stereo partly drawn) [Compound 376, 3-Chloro-4,7-difluoro-benzo[b]thiophene-2-carboxylic acid (3′-methanesulfinyl-4-methoxy-biphenyl-3-ylmethyl)-(4-methylamino-cyclohexyl)-amide trifluoroacetate], the EC50 in experiment [1] (setting [7]) and in experiment [2] (setting [8]) was below 0.05 µM in each case.
As to `CCOc1ccc(-c2ccc(C#N)cc2)cc1CN(C(=O)c1sc2ccccc2c1Cl)[C@H]1CC[C@H](NC)CC1`, in experiment [3], the “C57BL/6 Hair Growth” value is “yes”.
Consider `CN[C@H]1CC[C@H](N(Cc2cc(-c3ccccc3)ccc2OC)C(=O)c2sc3ccccc3c2Cl)CC1`, for which the “C57BL/6 Hair Growth” value in experiment [3] was “yes”. For the same compound, in experiment [4], the “Androgenetic Alopecia” value is “yes”.
On to `CN[C@H]1CC[C@H](N(Cc2cc(-c3ccc(N)nc3)ccc2OC)C(=O)c2sc3cccc(F)c3c2Cl)CC1`, for which, in experiment [3], the “C57BL/6 Hair Growth” value is reported as “yes”. In addition, the “Androgenetic Alopecia” value in experiment [4] was “yes”.
`CN[C@H]1CC[C@@H](N(Cc2cc(-c3cccnc3)ccc2OC)C(=O)c2sc3cccc(F)c3c2Cl)CC1` [360 (R16), 3-Chloro-4-fluoro-benzo[b]thiophene-2-carboxylic acid (2-methoxy-5-pyridin-3-yl-benzyl)-(4-methylamino-cyclohexyl)-amide dihydrochloride]: the half-maximal effective concentration (EC50) in experiment [5], in experiment [1] (setting [9]), in experiment [6] and in experiment [2] (setting [10]) was below 0.05 µM each time.
For `COc1ccc(-c2cc[n+](C)cc2)cc1CN(C(=O)c1sc2c(F)ccc(F)c2c1Cl)[C@H]1CC[C@@H](N)CC1` [Compound 418], the EC50 in experiment [1] (S12 mouse embryonic mesenchymal cells, Table 3, read-out: S12 Avg. EC50) was 1 to 2.5 µM; in experiment [2] (Daoy human cells, gli-luciferase reporter, Table 3, read-out: Daoy Avg. EC50), below 0.05 µM.
Regarding `CN[C@H]1CC[C@H](N(Cc2cc(-c3ccnc(C(=O)N(C)C)c3)ccc2OC)C(=O)c2sc3c(F)ccc(F)c3c2Cl)CC1`, the “C57BL/6 Hair Growth” value in experiment [3] was “yes”. Moreover, the “Androgenetic Alopecia” value in experiment [4] is reported as “yes”.
For the compound `CN[C@H]1CC[C@@H](N(Cc2cc(-c3cccc(SC)c3)ccc2OC)C(=O)c2sc3c(F)ccc(F)c3c2Cl)CC1` [Compound 372, 3-Chloro-4,7-difluoro-benzo[b]thiophene-2-carboxylic acid (4-methoxy-3′-methylsulfanyl-biphenyl-3-ylmethyl)-(4-methylamino-cyclohexyl)-amide hydrochloride], the EC50 in experiment [1] (setting [7]) and in experiment [2] (setting [8]) was below 0.05 µM in each case.
For `CN[C@H]1CC[C@H](N(Cc2cc(-c3cc(C)nc(C)c3)ccc2OC)C(=O)c2sc3ccccc3c2Cl)CC1`, the “C57BL/6 Hair Growth” value in experiment [3] is on record as “yes”. Also, the “Androgenetic Alopecia” value in experiment [4] is on record as “yes”.
